Among the data in patent US11731943B2, “Therapeutic compounds, compositions and methods of use thereof” (priority 2016, dated 2023) are Ki and IC50 values, retold here.

Read-outs that look alike come from different tables or passages of the source. Some results are limits rather than exact numbers.

Test [1] addresses isolated recombinant JAK2 kinase domain (Homo sapiens (Human), UniProt O60674). Kind of test: JAK2 enzyme assay (Caliper LabChip, Ki). It is filed as biochemical. Put shortly:
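Caliper LabChip readout of phosphorylated product as a fraction of total substrate, a fluorescently N-terminally labelled JAK3-derived peptide. Isolated human JAK kinase domains were incubated 30 min at 22 °C before EDTA quench (50 mM final).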

The subject of test [2] is JAK1-dependent STAT6 phosphorylation downstream of IL-13 stimulation in BEAS-2B human bronchial epithelial cells. The test can be described thus: JAK1 pathway assay in BEAS-2B cells (IL-13-pSTAT6, MSD). It is filed as cell-based. Particulars: BEAS-2B cells, IL-13 stimulation, read-out: IL-13 p-STAT6 BEAS-2B IC50. How it is done:
JAK1 Pathway Assay in Cell Lines was carried out as follows:
Inhibitor potency (EC50) was determined in cell-based assays designed to measure JAK1 dependent STAT phosphorylation.
In one assay approach, TF-1 human erythroleukemia cells obtained from the American Type Culture Collection (ATCC; Manassas, Va.) were used to measure JAK1-dependent STAT6 phosphorylation downstream of IL-13 stimulation. Prior to use in the assays, TF-1 cells were starved of GM-CSF overnight in OptiMEM medium (Life Technologies, Grand Island, N.Y.) supplemented with 0.5% charcoal/dextran stripped fetal bovine serum (FBS), 0.1 mM non-essential amino acids (NEAA), and 1 mM sodium pyruvate. The assays were run in 384-well plates in serum-free OptiMEM medium using 300,000 cells per well. In a second assay approach, BEAS-2B human bronchial epithelial cells obtained from ATCC were plated at 100,000 cells per well of a 96-well plate one day prior to the experiment. The BEAS-2B assay was run in complete growth medium (bronchial epithelial basal medium plus bulletkit; Lonza; Basel, Switzerland).
Test compounds were serially diluted 1:2 in DMSO and then diluted 1:50 in medium just before use. Diluted compounds were added to the cells, for a final DMSO concentration of 0.2%, and incubated for 30 min (for the TF-1 assay) or 1 hr (for the BEAS-2B assay) at 37° C. Then, cells were stimulated with human recombinant cytokine at their respective EC90 concentrations, as previously determined for each individual lot. Cells were stimulated with IL-13 (R&D Systems, Minneapolis, Minn.) for 15 min at 37° C. The TF-1 cell reactions were stopped by the direct addition of 10× lysis buffer (Cell Signaling Technologies, Danvers, Mass.), whereas the BEAS-2B cell incubations were halted by the removal of medium and addition of 1× lysis buffer. The resultant samples were frozen in the plates at −80° C. Compound mediated inhibition of STATE phosphorylation was measured in the cell lysates using MesoScale Discovery (MSD) technology (Gaithersburg, Md.).

The target of test [3] is isolated recombinant JAK1 kinase domain (Homo sapiens (Human), UniProt P23458). The test can be described thus: JAK1 enzyme assay (Caliper LabChip, Ki). The test is classed as biochemical. In short, it runs like this: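 Ki derived via Morrison tight-binding model, ATP-competitive correction applied. Read-out: product/total ratio of a 5-carboxyfluorescein-tagged JAK3 peptide separated on Caliper LabChip after phosphorylation by isolated human JAK1 kinase domain (22 °C, 30 min; EDTA quench, 50 mM final).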
isolated recombinant JAK1 kinase domain, sequence (P23458 875-1153): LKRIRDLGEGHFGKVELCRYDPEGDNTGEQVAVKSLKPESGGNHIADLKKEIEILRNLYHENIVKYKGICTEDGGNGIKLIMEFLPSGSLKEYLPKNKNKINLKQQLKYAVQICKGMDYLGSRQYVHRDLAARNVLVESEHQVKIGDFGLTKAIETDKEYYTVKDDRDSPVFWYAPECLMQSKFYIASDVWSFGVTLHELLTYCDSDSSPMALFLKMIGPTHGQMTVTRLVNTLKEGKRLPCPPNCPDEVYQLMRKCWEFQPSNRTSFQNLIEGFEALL

isolated recombinant JAK2 kinase domain, sequence (O60674 849-1124): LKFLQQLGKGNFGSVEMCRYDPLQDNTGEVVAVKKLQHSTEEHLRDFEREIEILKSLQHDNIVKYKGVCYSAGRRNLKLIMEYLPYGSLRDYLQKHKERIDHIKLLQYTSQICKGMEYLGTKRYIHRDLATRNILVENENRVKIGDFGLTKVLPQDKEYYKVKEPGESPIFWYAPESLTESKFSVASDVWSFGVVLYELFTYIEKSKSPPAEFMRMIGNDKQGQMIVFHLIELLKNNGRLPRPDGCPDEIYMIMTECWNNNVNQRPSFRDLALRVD

Usually Ki stands for the equilibrium dissociation constant of an inhibitor or competing ligand from its target. By IC50 is commonly meant the concentration needed to halve the response being measured. Take `N#CC[C@]1(n2cc(C(N)=O)c(NC(=O)C3CC3)n2)CC[C@@H](NCC(F)(F)F)CC1` (single isomer, unassigned) [Example 1]: the inhibitory constant (Ki) in test [1] is 252 nM; in test [3] it was above 562 nM. Further, the IC50 in test [2] (Homo sapiens, BEAS-2B) is above 1000 nM.
The corresponding values for `N#CC[C@]1(n2cc(C(N)=O)c(NC(=O)C3CC3)n2)CC[C@H](NCC(F)(F)F)CC1` (single isomer, unassigned) [Example 2] are 6.1 nM, 1.2 nM and 373 nM.
On to `N#CC[C@]1(n2cc(C(N)=O)c(NC(=O)C3CC3)n2)CC[C@H](N2CC(C(F)(F)F)C2)CC1` (single isomer, unassigned) [Example 8], for which the Ki in test [1] turned out to be 11 nM; in test [3] (read-out: JAK1 Ki), 1.7 nM. Besides, the IC50 in test [2] (Homo sapiens, BEAS-2B) came to 194 nM.
The corresponding values for `CCOC1(C(F)(F)F)CN([C@H]2CC[C@@](CC#N)(n3cc(C(N)=O)c(NC(=O)C4CC4)n3)CC2)C1` (single isomer, unassigned) [Example 9] are 24.3 nM, 2.2 nM and 436 nM.
On to `CCOC1(C(F)(F)F)CN([C@H]2CC[C@](CC#N)(n3cc(C(N)=O)c(NC(=O)C4CC4)n3)CC2)C1` (single isomer, unassigned) [Example 10], for which the inhibition constant Ki is above 319 nM in test [1] and above 562 nM in test [3] (read-out: JAK1 Ki). Also, in test [2] (Homo sapiens, BEAS-2B), the IC50 is above 1000 nM.
The corresponding values for `N#CC[C@]1(n2cc(C(N)=O)c(NC(=O)C3CC3)n2)CCN(Cc2ccc(-c3ccccc3)cc2)C[C@@H]1F` (single isomer, unassigned) [Example 12] are 6.8 nM, 1.3 nM and 103 nM.
On to `N#CC[C@@]1(n2cc(C(N)=O)c(NC(=O)C3CC3)n2)CCN(Cc2ccc(-c3ccccc3)cc2)C[C@@H]1F` (single isomer, unassigned) [Example 13], for which the Ki in test [1] was found to be 2.2 nM; in test [3] (read-out: JAK1 Ki), 0.6 nM. Also, the half-inhibitory concentration (IC50) in test [2] (Homo sapiens, BEAS-2B) was found to be 37 nM.
As to `N#CC[C@]1(n2cc(C(N)=O)c(NC(=O)C3CC3)n2)CCN(Cc2ccc(-c3ccccc3)cc2)C[C@H]1F` (single isomer, unassigned) [Example 14], the Ki turned out to be 0.4 nM in test [1] and 0.2 nM in test [3] (read-out: JAK1 Ki). Moreover, the half-maximal inhibitory concentration (IC50) in test [2] (Homo sapiens, BEAS-2B) was 16 nM.
Take `N#CC[C@@]1(n2cc(C(N)=O)c(NC(=O)C3CC3)n2)CCN(Cc2ccc(-c3ccccc3)cc2)C[C@H]1F` (single isomer, unassigned) [Example 15]: the Ki in test [1] is 30.7 nM; in test [3] (read-out: JAK1 Ki), 4.2 nM. In test [2] (Homo sapiens, BEAS-2B), the concentration for half-maximal inhibition (IC50) turned out to be 282 nM.
As for `N#CCC1(n2cc(C(N)=O)c(NC(=O)C3CC3)n2)CCC(Oc2ccc(-c3ccccc3)cc2)CC1` (single isomer, unassigned) [Example 210, 1-(4-([1,1′-Biphenyl]-4-yloxy)-1-(cyanomethyl)cyclohexyl)-3-(cyclopropanecarboxamido)-1H-pyrazole-4-carboxamide], the values for the Ki in test [1] and in test [3] (read-out: JAK1 Ki) were 5.1 nM and 2.1 nM, respectively. For the same compound, the half-inhibitory concentration (IC50) in test [2] came to 75 nM.
The like results for `N#CCC1(n2cc(C(N)=O)c(NC(=O)C3CC3)n2)CCC(Oc2ccc(-c3ccccc3)cc2)CC1` (single isomer, unassigned) [Example 211, 1-(4-([1,1′-Biphenyl]-4-yloxy)-1-(cyanomethyl)cyclohexyl)-3-(cyclopropanecarboxamido)-1H-pyrazole-4-carboxamide] were, in that order, 4.6 nM, 0.74 nM and 26 nM.
On to `N#CCC1(n2cc(C(N)=O)c(NC(=O)C3CC3)n2)CCN(Cc2ccc(-c3ccccc3)cc2)CC1` [Example 6, 1-(1-([1,1′-Biphenyl]-4-ylmethyl)-4-(cyanomethyl)piperidin-4-yl)-3-(cyclopropanecarboxamido)-1H-pyrazole-4-carboxamide], for which the inhibition constant (Ki) in test [1] is 3.6 nM; in test [3] (read-out: JAK1 Ki) it was 0.8 nM. Further, the half-inhibitory concentration (IC50) in test [2] (Homo sapiens, BEAS-2B) stood at 31 nM.
The corresponding values for `N#CCC1(n2cc(C(N)=O)c(NC(=O)C3CC3)n2)CCN(Cc2ccc(-c3ccccc3)c(O)c2)CC1` [Example 11, 1-(4-(Cyanomethyl)-1-((2-hydroxy-[1,1′-biphenyl]-4-yl)methyl)piperidin-4-yl)-3-(cyclopropanecarboxamido)-1H-pyrazole-4-carboxamide] are 1 nM, 0.4 nM and 383 nM.
The like results for `N#CCC1(n2cc(C(N)=O)c(NC(=O)C3CC3)n2)CCN(Cc2ccc(-c3csc(Cl)c3)nc2)CC1` [Example 16, 1-(1-((6-(5-Chlorothiophen-3-yl)pyridin-3-yl)methyl)-4-(cyanomethyl)piperidin-4-yl)-3-(cyclopropanecarboxamido)-1H-pyrazole-4-carboxamide] were, in that order, 2.4 nM, 0.5 nM and 85 nM.
The corresponding values for `N#CCC1(n2cc(C(N)=O)c(NC(=O)C3CC3)n2)CCN(C(=O)OCC2CC2)CC1` [Example 17, Cyclopropylmethyl 4-(4-carbamoyl-3-(cyclopropanecarboxamido)-1H-pyrazol-1-yl)4-(cyanomethyl) piperidine-1-carboxylate] are 69.4 nM, 4 nM and 948 nM.
`N#CCC1(n2cc(C(N)=O)c(NC(=O)C3CC3)n2)CCN(C(=O)NC2CC(F)(F)C2)CC1` [Example 21, 4-(4-Carbamoyl-3-(cyclopropanecarboxamido)-1H-pyrazol-1-yl)-4-(cyanomethyl)-N-(3,3-difluorocyclobutyl) piperidine-1-carboxamide]: the inhibition constant (Ki) in test [1] came to 48.4 nM; in test [3] (read-out: JAK1 Ki), 2.3 nM. In addition, the IC50 in test [2] (Homo sapiens, BEAS-2B) was above 1000 nM.
The like results for `N#CCC1(n2cc(C(N)=O)c(NC(=O)C3CC3)n2)CCN(CC(F)(F)F)CC1` [Example 23] were, in that order, 19.4 nM, 4.5 nM and 250 nM.
The like results for `CS(=O)(=O)Nc1cccc(CN2CCC(CC#N)(n3cc(C(N)=O)c(NC(=O)C4CC4)n3)CC2)c1` [Example 45] were, in that order, 8.5 nM, 1.9 nM and above 1000 nM.
The corresponding values for `N#CCC1(n2cc(C(N)=O)c(NC(=O)C3CC3)n2)CCN(Cc2ccc(Br)cc2)CC1` [Example 52] are 20.9 nM, 2.3 nM and 102 nM.
With `N#CCC1(n2cc(C(N)=O)c(NC(=O)C3CC3)n2)CCN(Cc2ccc(I)cc2)CC1` [Example 55], the inhibitory constant (Ki) in test [1] was 31.4 nM; in test [3] (read-out: JAK1 Ki), 3.2 nM. Besides, the IC50 in test [2] (Homo sapiens, BEAS-2B) is 98 nM.
The like results for `N#CCC1(n2cc(C(N)=O)c(NC(=O)C3CC3)n2)CCN(Cc2cccc(F)c2)CC1` [Example 56] were, in that order, 24.3 nM, 2.4 nM and 363 nM.
The corresponding values for `N#CCC1(n2cc(C(N)=O)c(NC(=O)C3CC3)n2)CCN(Cc2ccc(F)cc2)CC1` [Example 57] are 49 nM, 3.9 nM and 128 nM.
As to `N#CCC1(n2cc(C(N)=O)c(NC(=O)C3CC3)n2)CCN(Cc2ccccc2Cl)CC1` [Example 58], the inhibition constant Ki in test [1] turned out to be 42.6 nM; in test [3] (read-out: JAK1 Ki) it was 4.4 nM. Further, in test [2] (Homo sapiens, BEAS-2B), the IC50 was 287 nM.
Turning to `N#CCC1(n2cc(C(N)=O)c(NC(=O)C3CC3)n2)CCN(Cc2ccc(Cl)cc2)CC1` [Example 60], the Ki in test [1] is 23.4 nM; in test [3] (read-out: JAK1 Ki) it was 3.9 nM. Also, in test [2] (Homo sapiens, BEAS-2B), the concentration for half-maximal inhibition (IC50) was 94 nM.
The corresponding values for `N#CCC1(n2cc(C(N)=O)c(NC(=O)C3CC3)n2)CCN(Cc2ccccc2C#N)CC1` [Example 64] are 83.5 nM, 7.3 nM and above 1000 nM.
The like results for `N#CCC1(n2cc(C(N)=O)c(NC(=O)C3CC3)n2)CCN(Cc2ccc(C#N)cc2)CC1` [Example 66] were, in that order, 50.2 nM, 4 nM and 910 nM.
As for `N#CCC1(n2cc(C(N)=O)c(NC(=O)C3CC3)n2)CCN(Cc2ccc(-c3ccccn3)cc2)CC1` [Example 185, 1-[4-(cyanomethyl)-1-[[4-(2-pyridyl)phenyl]methyl]-4-piperidyl]-3-(cyclopropanecarbonylamino) pyrazole-4-carboxamide], the 50% inhibitory concentration (IC50) in test [2] (Homo sapiens, BEAS-2B) was 209 nM. The Ki in test [3] (read-out: JAK1 Ki) came to 2.3 nM.
